From PMC4032254, “Targeting of the MYCN Protein with Small Molecule c-MYC Inhibitors” (PLoS ONE, 2014)

What was measured:
[1] = molecular target: T1, bHLHZip domain of human MYCN (380–464) (Homo sapiens, UniProt P04198); assay: Surface plasmon resonance binding to bHLHZip of MYCN; settings: SPR, 25°C, steady state, mean ± SD
T1 construct: N-terminally His-tagged bHLHZip c-MYC (353–437) and bHLHZip MYCN (380–464) proteins were over-expressed in E. coli BL21 (DE3); made in house; host or cells: E. coli BL21 (DE3)
Method: (§1) For all SPR binding measurements the compounds were injected at increasing concentrations.
(§2) In order to determine the affinity of the compounds to c-MYC and MYCN, the response for each small molecule was plotted against the analyte (compound) concentration. The KD was defined as the concentration of analyte at 50% of the experimental maximal Response (Rmax). Approximate KD-values could be determined for all compounds except for #764. […] In summary, all active c-MYC inhibitors tested were also found to bind directly to MYCN.
N-terminally His-tagged bHLHZip c-MYC (353–437) and bHLHZip MYCN (380–464) proteins were over-expressed in E. coli BL21 (DE3) bacteria (Stratagene) at 37°C in LB media with kanamycin. Cultures were induced with Isopropyl β-D-1-thiogalactopyranoside (0,1 mg/ml) at an OD of 0.6 and harvested after 4 hours. After sonication of the proteins in 50 mM NaH2PO4, 100 mM NaCl and 10 mM Tris-HCl (pH = 8,0) for 6×30 seconds, the pellet was resuspended in 100 mM NaH2PO4, 10 mM Tris-HCl, 10 mM imidazole and 8 M urea (pH = 8,0) prior to additional sonication for 6×30 seconds. The proteins were then loaded onto a Ni-Sepahrose High Performance His-Trap column (GE Healthcare), washed with ten column volumes of 100 mM NaH2PO4, 10 mM Tris-HCl, 40 mM imidazole and 8 M urea (pH = 8,0) and finally eluted with two column volumes 100 mM NaH2PO4, 10 mM Tris-HCl, 500 mM imidazole and 8 M urea (pH = 8,0). Fractions without visible higher molecular mass contaminations, as judged by SDS-page, were pooled and refolded by dialysis in 50 mM NaH2PO4, 100 mM NaCl, 10 mM Tris-HCl (pH = 8,0), 5 mM EDTA, 2 mM DTT and decreasing concentrations of urea (6 M, 4 M, 2 M and 0 M). […] Protein concentrations were determined by SDS-page comparing purified proteins to a standard curve of BSA loaded on the gel.
(§3) Surface Plasmon Resonance (SPR) experiments were performed using a Biacore T200 (GE Healthcare) instrument at 25°C. […] The obtained data was analyzed by the Biacore T200 Evaluation Software 2.0 (GE Healthcare). […]

[2] = Solubility in aqueous buffers (SPR running buffer); type: physicochemical; settings: could not be analyzed at concentrations above 50 µM
Method: as §1

[3] = system: Burkitt's lymphoma cell line xenograft; set-up: method as in PMID 20801893; settings: cited from earlier work
[4] = molecular target: T2, MYCN/MAX interaction (Homo sapiens, UniProt P04198); assay: Proximity ligation assay (PLA) for MYCN/MAX interaction in SMS-KCN69n cells; type: cell-based; settings: for effect on MYCN/MAX interaction (PLA): 6 hours treatment, compared to DMSO
T2 construct: endogenous in cells; host or cells: SMS-KCN69n (human MYCN-amplified neuroblastoma)
T2 sequence (P04198 1-464): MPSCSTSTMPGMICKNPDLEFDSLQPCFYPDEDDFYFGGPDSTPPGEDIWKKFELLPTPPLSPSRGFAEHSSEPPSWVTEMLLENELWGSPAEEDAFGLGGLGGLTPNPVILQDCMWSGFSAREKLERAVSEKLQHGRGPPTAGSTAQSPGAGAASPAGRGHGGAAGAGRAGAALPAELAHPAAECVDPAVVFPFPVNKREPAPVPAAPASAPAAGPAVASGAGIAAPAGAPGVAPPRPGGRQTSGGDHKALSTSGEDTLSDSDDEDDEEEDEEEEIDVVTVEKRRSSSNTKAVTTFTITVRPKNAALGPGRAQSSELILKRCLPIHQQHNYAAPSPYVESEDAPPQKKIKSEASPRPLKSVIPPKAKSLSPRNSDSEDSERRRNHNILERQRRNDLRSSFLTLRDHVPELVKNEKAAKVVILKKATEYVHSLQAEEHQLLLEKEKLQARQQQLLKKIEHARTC
Source text: To investigate if the other small molecules also have an effect on MYCN/MAX dimerization we performed a proximity ligation assay (PLA) using MYCN-amplified SMS-KCN69n NB cells. […] No signal was detected in any of the experimental negative controls (Figure S4).
Figure 3 Reduction of MYCN/MAX interaction in NB cells after treatment with small molecules. A) Proximity ligation assay (PLA) for MYCN/MAX interaction after treatment of SMS-KCN69n cells with the different small molecules at the indicated concentrations for 6 hours. […] DNA is stained with DAPI. Scale bar: […]. The pictures are representative from three independent experiments. B) Quantification of the PLA signals per cell after treatment with the different compounds. Error bars indicate standard error of the mean.
40×10^3 SMS-KCN69n cells were seeded on collagen coated coverslips and grown for 24 hours and treated for 6 hours the next day. After 6 hours the cells were washed in PBS and treated as previously described. The PLA assay was performed after manufacturer's instructions with the Duolink kit (Olink, Uppsala, Sweden). The cells were incubated with primary antibody against MYCN (NCMII100, St Cruz Bio) 1∶500 and Max (C-17, St Cruz Bio) 1∶500 for 1 hour in a humidity chamber at 37°C, which were diluted in antibody diluent provided by the manufacturer. MYCN (1∶500) and FAS (A-20, St Cruz Bio) 1∶500 as well as MAX (1∶500) and GFP (C-2, St Cruz Bio) 1∶500 antibodies were used in combination in order to test for any unspecific binding of the secondary antibodies or unspecific signals. […]
The confocal images of the cells were acquired at 63× magnification using a motorized axiovert fluorescence microscope 200 M LCI (Zeiss GmBH, Göttingen, Germany) including a CSU10 Yokogawa head; a multilens/multipinhole array aperture (Yokogawa, Japan), an ORCA ER cold CCD camera; detector array 1344×1024px (Hammamatsu, Japan) and two continuous wave diode-pumped solid-state (DPSS) lasers for fluorescence excitation (Cobolt, Sweden); Cobolt Calypso 491 nm DPSS (excitation of green PLA fluorophore) and Cobolt Jive 561 nm DPSS (excitation of Alexa Fluor 568). […] A total amount of at least 120 cells were analyzed for all compounds. The PLA signals were analyzed using the open source image analysis program Image J (NIH, Bethseda, USA) and the amount of PLA signal per cell was calculated. Two persons analyzed the images independently in a blind fashion.
In order to quantify the PLA signal from the total z-depth of each cell confocal z-stacks was projected in z and identically processed regarding background subtraction. The PLA signal was then quantified blindly and automatically using a find maxima-based algorithm in ImageJ (plugin routine developed by Dr. E. Flaberg and Professor L. Szekely, KI and available upon request). […]

[5] = system: SK-N-BE(2) cells; assay: Neuronal differentiation of NB cells (neurite outgrowth); type: cell-based, human; settings: sub-lethal concentrations, 14-15 days
Method: SK-N-BE(2) cells were grown for 15 days in 6 well-plates and treated twice per week with DMSO or compound, with and without NGF. Differentiation was assessed based on number and length of neuronal outgrowths using a phase contrast microscope (Axiovert 40 CFL, Zeiss) and the Axiovision Rel. 4.8 software.
Phase contrast micrographs show representative pictures from one out of 3 to 5 independent experiments.

[6] = system: Kelly cells; assay: Apoptosis, propidium iodide sub G1 DNA content, Kelly; type: cell-based, human
Method: (§4) Figure 5 Growth inhibition and apoptosis induction in MYCN amplified cells. (A) The amount of viable of cells was determined using crystal violet assay following 48 hours treatment of Kelly cells with increasing concentration of the indicated compound. Data are shown as percent of control (DMSO) treated cells and represent the mean of three independent experiments. Error bars indicate standard deviation. (B) Pearson's correlation between the IC50 values in the growth inhibition assay (A, Table 2) and the KD values for binding to MYCN (Table 1). (C–D) Quantification of apoptosis by propidium iodide staining for sub G1 DNA content of SK-N-BE(2) (C) and Kelly (D) cells. Data represent the means of at least three independent experiments. Error bars indicate standard deviation. We next investigated the level of apoptosis induction in response to treatment with the molecules using two different MNA NB cell lines (Figure 5C, D). […] To verify the MYCN specificity in apoptosis induction, we next used Tet21N NB cells with doxycycline regulated MYCN expression. […] Small molecule-induced apoptosis was scored by quantifying the sub-G0/G1 fraction of the cell cycle. […] Cells were stained with propidium iodide solution (5 µg/ml propidium iodide and 25 µg/ml RNase A in PBS) for 30 min at 37°C and analyzed in a FACScan flow cytometer (Becton Dickinson). […]

[7] = system: SK-N-BE(2) cells; assay: Oil Red O staining of lipids; type: cell-based, human; settings: sub-lethal concentrations, 3 days
Method: To explore the effect on lipid accumulation of the small molecules studied here cells were treated with sub-lethal concentrations of the compounds and stained with Oil Red O in order to detect lipids.
SK-N-BE(2) cells grown on cover slips were fixed in 4% PFA, washed in PBS and then in 60% isopropanol before staining with filtered Oil Red O solution (2 mg/ml) in 60% isopropanol. Cells were washed briefly in distilled water and mounted onto glass slides using water-soluble mounting medium (Aqua Pertex, Histolab products AB). For visualization, bright field images were captured at 40X magnification using an Axiovert 40 CFL inverted fluorescence microscope (Zeiss) and Axiovision Rel. 4.8 software.

[8] = system: Kelly cells; assay: Crystal violet growth inhibition assay in Kelly cells; type: cell-based, human; settings: 48 h treatment
Source text: Error bars indicate standard deviation. […] Error bars indicate standard deviation.

[9] = system: MYCN protein levels; assay: Western blot of MYCN protein levels in SK-N-BE(2) cells; type: cell-based, human; settings: 48 hours
Method: In order to determine the effect of the other compounds analyzed in this study on the MYCN protein levels, SK-N-BE(2) NB cells were treated with as a high concentration of each compound as possible without resulting in excessive cell death. […] Membranes were probed with antibodies recognizing MYCN and GAPDH. The blots are representative from three independent experiments. Whole cell extracts were prepared and lysed using RIPA-buffer. Western blot analysis was performed as previously described. In brief, membranes were probed with a mouse anti-MYCN antibody (B8.4.B, St Cruz Bio), MAX antibody (C-2, St Cruz Bio) and an HRP-conjugated anti-mouse antibody (DAKO) was used as secondary antibody. The membranes were developed using enhanced chemiluminescence substrate (ECL, Amersham).

[10] = system: Tet21N cells; assay: Apoptosis in Tet21N cells with doxycycline regulated MYCN expression; type: cell-based, human; settings: 48 hour treatment
Source text: GAPDH was used as loading control. […] Error bars indicate standard error. (TIF) Click here for additional data file.

[11] = system: SK-N-BE(2) cells; assay: Apoptosis, propidium iodide sub G1 DNA content, SK-N-BE(2); type: cell-based, human
Method: as §4

[12] = system: xenograft models of prostate cancer; settings: cited from earlier work
[13] = system: TH-MYCN transgenic mice; set-up: method as in PMID 23733953; settings: cited from earlier work
[14] = system: NB xenografts; set-up: method as in PMID 23733953; settings: cited from earlier work
[15] = molecular target: T3, bHLHZip domain of human c-MYC (353–437) (Homo sapiens, UniProt P01106); assay: Surface plasmon resonance binding to bHLHZip of c-MYC; settings: SPR, 25°C, steady state, mean ± SD
T3 construct: N-terminally His-tagged bHLHZip c-MYC (353–437) and bHLHZip MYCN (380–464) proteins were over-expressed in E. coli BL21 (DE3); made in house; host or cells: E. coli BL21 (DE3)
T3 sequence (P01106 368-452): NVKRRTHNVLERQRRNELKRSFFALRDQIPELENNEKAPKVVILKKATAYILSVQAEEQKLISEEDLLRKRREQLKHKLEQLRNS
Method: as §1, §2
N-terminally His-tagged bHLHZip c-MYC (353–437) and bHLHZip MYCN (380–464) proteins were over-expressed in E. coli BL21 (DE3) bacteria (Stratagene) at 37°C in LB media with kanamycin. Cultures were induced with Isopropyl β-D-1-thiogalactopyranoside (0,1 mg/ml) at an OD of 0.6 and harvested after 4 hours. […] Protein concentrations were determined by SDS-page comparing purified proteins to a standard curve of BSA loaded on the gel.
as §3

| Structure (SMILES) | Kd [1] | solubility in aqueous buffers [2] | antitumor activity in Burkitt's lymphoma xenograft [3] | effect on MYCN/MAX interaction (PLA) [4] | morphological neuronal differentiation [5] | apoptosis (cell death) induction relative to 10058-F4 [6] | lipid droplet accumulation [7] | IC50 [8] | effect on MYCN protein levels [9] | apoptosis induction in cells with high vs low MYCN [10] | apoptosis (cell death) induction relative to 10058-F4 [11] | antitumor activity in prostate cancer xenografts [12] | survival of TH-MYCN transgenic mice [13] | anti-tumor effects in NB xenografts [14] | effect on MYCN/MAX interaction (PLA) at 112.5 µM ([4]; 112.5 µM) | Kd [15] |
| --- | --- | --- | --- | --- | --- | --- | --- | --- | --- | --- | --- | --- | --- | --- | --- | --- |
| O=[N+]([O-])c1ccc(Nc2ccccc2-c2ccccc2)c2nonc12 [Compound 10074-G5] | 19.2 µM | especially poor solubility in aqueous buffers | failed to show any antitumor activity | reduced the MYCN/MAX interaction | evident neurite outgrowth | more potent than 10058-F4 in inducing cell death | smaller but more numerous lipid droplets | 22.5 µM | decreased the MYCN protein levels at lower concentrations than 10058-F4 | MYCN dependent induction of apoptosis | more potent than 10058-F4 in inducing cell death |  |  |  |  |  |
| CCc1ccc(C=C2SC(=S)NC2=O)cc1 [Compound 10058-F4, [Z,E]-5-[4-ethylbenzylidine]-2-thioxothiazolidin-4-one] | 41.9 µM |  |  | reduced the MYCN/MAX interaction |  |  |  | 41.1 µM | able to efficiently decrease the MYCN protein levels | cells with low MYCN-levels were less sensitive |  | no significant antitumor activity | increased the survival | showed anti-tumor effects |  |  |
| CCc1ccc(C=C2SC(=O)NC2=O)cc1 [C-m/z 232] | 87.1 µM |  |  | did not affect MYCN/MAX dimer formation |  |  |  |  |  |  |  |  |  |  | not able to effect the MYCN/MAX interaction | 82.3 µM |
